Experimental findings from PubChem BioAssay (NCI) are described below.

Molecules are shown by their SMILES.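 Five concentrations, 48 hours, 96-well plates. The concentration for full growth arrest is given as TGI.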 Some results are limits rather than exact numbers.

Common to all, as to test: NCI anticancer screen, dose series, 48 h
The test system of assay [1] is BT-549 breast.
For assay [2], the system named is DU-145 prostate.
Assay [3] relates to HOP-62 NSCLC.
The test system of assay [4] is HS 578T breast.
Assay [5] relates to IGROV1 ovarian.
Assay [6] deals with LOX IMVI melanoma.
Assay [7] deals with M14 melanoma.
For assay [8], the system named is MALME-3M melanoma.
Assay [9] deals with MCF7 breast.
Assay [10] relates to MDA-N.
Assay [11] has as its system NCI-H460 lung.
Assay [12] concerns NCI-H522 lung.
The subject of assay [13] is OVCAR-5 ovarian.
Assay [14] deals with SK-MEL-5 melanoma.
Assay [15] has as its system SN12C renal.
Assay [16] has as its system U251 CNS.
In assay [17] the test system is UACC-62 melanoma.
Assay [18] concerns UO-31 renal.
Assay [19] has as its system HCC-2998 colon.
The test system of assay [20] is RXF 393 renal.

`COc1cc2c(cc1OC)-c1[nH]c3ccc(C#N)cc3c1CC(=O)N2`: the TGI was over 100 µM in assay [1]; over 100 µM in [2]; over 100 µM in [3]; over 100 µM in assay [4]; over 100 µM in [5]; over 33.6 µM in [6]. Further, the TGI is over 100 µM in assay [7]; over 100 µM in assay [8]; over 100 µM in assay [9]; over 90.6 µM in assay [10]; over 100 µM in assay [11]; over 100 µM in assay [12]. The TGI was over 24.7 µM in assay [13]; 28 µM in [14]; over 100 µM in assay [15]; over 100 µM in assay [16]; over 100 µM in [17]; over 22.6 µM in assay [18].
Consider `COc1ccc(C2c3cc4c(cc3C(O)C3CCC(=O)N23)OCO4)cc1` (centres undefined), for which the TGI in assay [1], in assay [2], in assay [19], in assay [3], in [4] and in assay [5] was over 100 µM each time. In addition, the TGI in [6], in [7], in [8], in assay [9], in assay [10] and in assay [11] was over 100 µM each time. For the same compound, the TGI in assay [12], in assay [13], in [14], in assay [15], in assay [16] and in assay [17] was over 100 µM throughout. The TGI in assay [18] was over 100 µM.
As for `NC1CC(=O)c2cc(Cl)sc21` (centres undefined), the TGI in assay [1], in assay [2], in assay [3], in [4], in [5] and in assay [6] was over 100 µM in each case. Moreover, the TGI in assay [7], in assay [8], in assay [10], in [11], in assay [12] and in [13] was over 100 µM throughout. Besides, the TGI in assay [20], in [14], in [15], in assay [16], in assay [17] and in assay [18] was over 100 µM each time.
With `O=C(O)c1c[nH]c2c(Sc3ccccc3)nccc2c1=O`, the TGI in assay [1], in assay [2], in [3], in [4], in assay [5] and in assay [6] was over 100 µM in each case. The TGI in assay [7], in assay [9], in assay [10], in [11], in assay [12] and in assay [13] was over 100 µM in each case. For the same compound, the TGI in [14], in [15], in [16], in assay [17] and in [18] was over 100 µM throughout.
For the compound `CCOC(=O)NC(C(F)(F)F)(C(F)(F)F)P(=O)(OC(C)C)OC(C)C`, the TGI in assay [1], in [2], in assay [19], in [3], in assay [4] and in [5] was over 100 µM throughout. In addition, the TGI in assay [6], in assay [8], in assay [9], in assay [10], in assay [11] and in assay [13] was over 100 µM throughout. Moreover, the TGI in assay [20], in [14], in assay [15], in [16], in [17] and in assay [18] was over 100 µM in each case.
In the case of `CCOC(=O)c1cc(Sc2ccc(N)c(C(=O)OCC)c2)ccc1N`, the TGI in assay [1] is over 100 µM; in [2] it was over 100 µM; in [3], 65.9 µM; in [4] it was over 100 µM; in assay [5], over 100 µM; in assay [7], over 100 µM. For the same compound, the TGI in [8], in assay [9], in [10], in assay [11], in [12] and in assay [13] was over 100 µM each time. Also, the TGI in [20] was over 100 µM; in assay [14], over 100 µM; in assay [15] it was 40.3 µM; in assay [16], over 100 µM; in [17] it was over 100 µM.
As for `CSc1nc2ccccc2c(=O)n1/N=C1\C(=O)N(CN2CCCCC2)c2ccc(Cl)cc21`, the TGI was 80.7 µM in [1]; 42.7 µM in assay [2]; over 100 µM in assay [3]; over 100 µM in assay [4]; 75.1 µM in assay [5]; 28.8 µM in assay [6]. For the same compound, the TGI in assay [7] was over 100 µM; in [8] it was over 100 µM; in assay [9], over 100 µM; in assay [10] it was over 100 µM; in assay [11] it was over 100 µM; in assay [12] it was 37.3 µM. The TGI in assay [13] is over 100 µM; in assay [20], 33.4 µM; in assay [14], over 100 µM; in [15] it was over 100 µM; in [16] it was over 100 µM; in [17] it was over 100 µM. The compound also returned a TGI in [18] of over 100 µM.
Consider `NC(=O)c1cc2ccccc2oc1=Nc1ccccc1`, for which the TGI in assay [1], in assay [2], in [19], in assay [3], in assay [4] and in [5] was over 100 µM each time. Further, the TGI in [6], in assay [7], in assay [8], in [9], in assay [10] and in [11] was over 100 µM throughout. The TGI in assay [13], in assay [20], in assay [14], in assay [15], in assay [16] and in assay [17] was over 100 µM throughout.
